Measured values taken from patent US5688950A, “Tricyclic aminoalkylcarboxamides; novel dopamine D3 receptor subtype specific ligands” (Neurogen Corporation, priority 1996, dated 1997).
Counter-ions that a name gives are not always drawn. Like-named read-outs stand apart in the source and are kept apart here.

Key:
D2 receptor = molecular target: T1, D2 receptor (Chlorocebus aethiops, UniProt P52702); test: D2 receptor binding activity (pellets of COS cells, 3H-YM 09151-2); set-up: species or system African Green monkey; conditions: 0.5 nM 3H-YM 09151-2, pH 7.4; nonspecific with 1 mM spiperone
T1 construct: expressed in transfected cells; host or cells: COS cells
T1 sequence (P52702 whole entry): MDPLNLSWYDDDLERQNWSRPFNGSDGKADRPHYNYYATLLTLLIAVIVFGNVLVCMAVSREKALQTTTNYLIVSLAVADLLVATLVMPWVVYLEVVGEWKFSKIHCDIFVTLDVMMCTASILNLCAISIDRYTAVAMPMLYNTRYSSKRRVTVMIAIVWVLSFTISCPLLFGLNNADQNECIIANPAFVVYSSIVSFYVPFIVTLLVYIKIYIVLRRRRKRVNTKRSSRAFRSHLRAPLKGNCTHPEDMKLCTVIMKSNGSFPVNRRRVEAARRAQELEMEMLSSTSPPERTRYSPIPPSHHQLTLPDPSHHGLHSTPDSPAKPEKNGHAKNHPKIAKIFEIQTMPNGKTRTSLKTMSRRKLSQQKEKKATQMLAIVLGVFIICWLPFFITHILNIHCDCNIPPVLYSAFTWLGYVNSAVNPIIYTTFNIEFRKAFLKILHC
Experimental: (§1) Pellets of COS cells containing recombinantly produced D2 or D3 receptors from African Green monkey were used for the assays. The sample is homogenized in 100 volumes (w/vol) of 0.05M Tris HCl buffer at 4° C. and pH 7.4. The sample is then centrifuged at 30,000×g and resuspended and rehomogenized. The sample is then centrifuged as described and the final tissue sample is frozen until use. The tissue is resuspended 1:20 (wt/vol) in 0.05M Tris HCl buffer containing 100 mM NaCl.
(§2) Incubations are carried out at 48° C. and contain 0.4 ml of tissue sample, 0.5 nM ^3 H-YM 09151-2 and the compound of interest in a total incubation of 1.0 ml. Nonspecific binding is defined as that binding found in the presence of 1 mM spiperone; without further additions, nonspecific binding is less than 20% of total binding. The binding characteristics of representative compounds of the invention for D2 and D3 receptor subtypes are shown in Table 1 for rat striatal homogenates.

D3 receptor = molecular target: T2, D3 receptor (Chlorocebus aethiops, UniProt P52703); test: D3 receptor binding activity (pellets of COS cells, 3H-YM 09151-2); set-up: species or system African Green monkey
T2 construct: expressed in transfected cells; host or cells: COS cells
T2 sequence (P52703 whole entry): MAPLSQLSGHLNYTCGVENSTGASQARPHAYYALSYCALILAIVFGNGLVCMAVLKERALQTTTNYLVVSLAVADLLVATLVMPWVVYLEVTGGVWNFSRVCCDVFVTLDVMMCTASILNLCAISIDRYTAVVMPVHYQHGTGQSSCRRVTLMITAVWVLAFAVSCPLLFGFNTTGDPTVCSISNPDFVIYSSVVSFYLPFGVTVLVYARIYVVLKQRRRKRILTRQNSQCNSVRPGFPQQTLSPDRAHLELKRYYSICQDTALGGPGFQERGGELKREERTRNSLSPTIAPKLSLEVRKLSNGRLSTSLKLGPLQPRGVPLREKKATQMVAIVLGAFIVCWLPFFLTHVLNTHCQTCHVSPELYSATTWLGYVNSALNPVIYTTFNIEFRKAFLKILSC
Experimental: as §1, §2

[1] = 0.5 nM 3H-YM 09151-2, pH 7.4, nonspecific with 1 mM spiperone, read-out: D3 Ki

| Compound | Ki (D2 receptor) | Ki (D3 receptor) | Ki (D3 receptor; [1]) |
| --- | --- | --- | --- |
| O=C(NCCCCN1CCC2=C(CCc3ccccc32)C1)c1ccc(-c2ccccc2)cc1 [Compound 13, N-{4-(1,2,3,4,5,6-hexahydrobenz[f]isoquinolin-2-yl)butyl}-biphenyl-4-carboxamide hydrochloride] | 0.362 µM | 0.01 µM |  |
| N-{4-(1,2,3,4-tetrahydrobenz[f]isoquinolin-2-yl)butyl}-fluoren-9-one-3-carboxamide hydrochloride [Compound 6] | 0.165 µM |  | 0.017 µM |
| O=C(NCCCCN1CCN2c3ccccc3CCC2C1)c1ccc2c(c1)Cc1ccccc1-2 (stereo not drawn) [Compound 14, N-{4-(2,3,4,4a,5,6-hexahydro-1H-pyrazino[1,2-a]quinolin-2-yl)butyl}-fluorene-2-carboxamide hydrochloride] | 0.198 µM |  | 0.009 µM |
| O=C(NCCCCN1CCc2c(ccc3ccccc23)C1)c1cnc2ccccc2n1 [Compound 8, N-{4-(1,2,3,4-tetrahydrobenz[f]isoquinolin-2-yl)butyl}-quinoxaline-2-carboxamide hydrochloride] | 0.25 µM |  | 0.012 µM |
| O=C(NCCCCN1CCc2c(ccc3ccccc23)C1)c1ccc2sc3ccccc3c2c1 [Compound 7, N-{4-(1,2,3,4-tetrahydrobenz[f]isoquinolin-2-yl)butyl}-dibenzothiophene-2-carboxamide hydrochloride] | 0.377 µM |  | 0.005 µM |
| O=C(NCCCCN1CCc2c(ccc3ccccc23)C1)c1cnc2ccccc2c1 [Compound 1, N-{4-(1,2,3,4-tetrahydrobenz[f]isoquinolin-2-yl)butyl}-quinoline-3-carboxamide hydrochloride] | 0.127 µM |  | 0.008 µM |
